Activity calls are given as the source filed them.
Experiments:
[1] = toxicity toward HepG2 liver cells – cell-based, plate reader, cherry-pick, antagonist series, cytotoxicity control, dose response (AID 743416); format: functional
[2] = A549 cell cytotoxicity, dose response, cytotoxicity control, plate reader, cherry-pick, antagonist series (AID 743412); format: functional, cell-based
[3] = blockers of bursicon-stimulated LGR2 cAMP reporter – cell-based, HEK293, CRE-luciferase reporter, cherry pick, set 2, dose response (AID 743343); format: functional;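 note: transfected cells were stimulated with diluted bursicon conditioned medium after compound addition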
[4] = blockade of melanocortin 4 receptor signaling – cell-based, plate reader, cherry pick, counter-screen for LGR2 antagonist project, dose response (AID 743444); format: functional;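 note: transfected HEK 293 cells stimulated with alpha-MSH peptide; potency of inhibitors of the alpha-MSH evoked signal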
cells = format: functional, cell-based
[5] = target: T1, Nuclear receptor subfamily 0 group B member 1 (Homo sapiens, UniProt P51843); format: functional, cell-based;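 note: HEK293T cells transfected with SF-1 and DAX-1 plus StAR promoter luciferase reporter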
T1 sequence (P51843 whole entry): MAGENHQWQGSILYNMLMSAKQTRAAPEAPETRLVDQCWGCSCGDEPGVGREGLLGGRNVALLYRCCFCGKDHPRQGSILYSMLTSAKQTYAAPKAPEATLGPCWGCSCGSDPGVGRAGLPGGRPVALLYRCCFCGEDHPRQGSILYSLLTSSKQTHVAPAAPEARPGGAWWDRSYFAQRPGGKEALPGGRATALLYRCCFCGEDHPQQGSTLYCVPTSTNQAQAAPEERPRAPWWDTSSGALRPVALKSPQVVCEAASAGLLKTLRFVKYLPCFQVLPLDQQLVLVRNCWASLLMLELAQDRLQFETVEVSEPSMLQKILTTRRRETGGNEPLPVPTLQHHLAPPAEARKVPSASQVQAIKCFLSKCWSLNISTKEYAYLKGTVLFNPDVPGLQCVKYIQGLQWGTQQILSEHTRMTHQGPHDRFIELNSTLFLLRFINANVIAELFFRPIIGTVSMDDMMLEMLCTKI

[6] = general mammalian cell viability loss – inhibitor set, cherry-pick, set 2, cytotoxicity control for miR-122 modulator project, dose response (AID 720697); format: functional, cell-based
[7] = target: T2, Polyadenylate-binding protein 1 (Homo sapiens, UniProt P11940); assay: MLLE domain peptide-binding blockers, IC50 – biochemical, fluorescence polarization, FITC-PAM2 peptide, dose response (AID 602259); format: functional; conditions: read-out: IC50_Mean
Large T antigen = Large T antigen (Simian virus 40, UniProt P03070); format: functional, Betapolyomavirus macacae;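 note: Confirmatory-stage PubChem screen for compounds that inhibit SV40 T antigen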
[8] = target: T2, Polyadenylate-binding protein 1; assay: MLLE binding blockers, Cy5 peptide tracer – biochemical, fluorescence polarization, Cy5-PAM2 peptide, secondary, miRNA deadenylation inhibitor project, dose response (AID 602260); format: functional; conditions: read-out: IC50_Mean
Genome polyprotein = Genome polyprotein (dengue virus type 2, UniProt P29990); assay: flavivirus cap methylation enzyme inhibition – biochemical, confirmation dose response, primary screen (AID 588689); format: functional
[9] = target: T3, Bifunctional protein GlmU (Mycobacterium tuberculosis, UniProt P9WMN3); assay: Inhibitors of Mycobacterial Glucosamine-1-phosphate acetyl transferase (GlmU). Secondary screen.; parameters: species or system Mycobacterium tuberculosis H37Rv
T3 sequence (P9WMN3 whole entry): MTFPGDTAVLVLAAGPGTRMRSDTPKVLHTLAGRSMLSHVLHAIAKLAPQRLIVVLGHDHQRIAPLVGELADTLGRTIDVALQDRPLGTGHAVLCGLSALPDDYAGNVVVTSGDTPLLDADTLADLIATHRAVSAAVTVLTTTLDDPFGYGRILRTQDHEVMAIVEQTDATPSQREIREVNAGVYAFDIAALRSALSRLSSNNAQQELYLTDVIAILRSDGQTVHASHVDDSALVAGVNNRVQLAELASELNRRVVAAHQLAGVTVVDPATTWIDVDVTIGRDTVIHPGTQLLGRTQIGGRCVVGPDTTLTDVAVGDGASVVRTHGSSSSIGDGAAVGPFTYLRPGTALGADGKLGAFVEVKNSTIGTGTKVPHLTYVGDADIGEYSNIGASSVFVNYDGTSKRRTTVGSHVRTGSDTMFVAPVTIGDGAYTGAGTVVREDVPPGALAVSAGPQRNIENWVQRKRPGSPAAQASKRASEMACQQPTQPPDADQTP

[10] = activation of miR-122 Renilla sensor silencing – cell-based, Huh7 psiCHECK-miR122, Renilla luciferase, cherry-picked, dose response (AID 651956); format: functional;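 note: huh7 hepatoma cells stably carrying a psiCHECK-2 miR-122 sensor plasmid; renilla luciferase signal reporting endogenous miR-122 activity after 48 h compound exposure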
[11] = inhibition of ADAM10 peptide cleavage – biochemical, FRET peptide substrate, recombinant human ADAM10, selectivity assay for ADAM17 exosite inhibitor project, dose response (AID 743259);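 note: ADAM10 enzyme cleaving a FRET peptide substrate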
BJ [12] = assay: BJ-TERT-LT-ST fibroblast viability loss – cell-based, RAS-independent, luminescence, dose response (AID 1935); format: functional; conditions: Homo sapiens;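 note: BJ fibroblasts immortalized with TERT plus LT and ST oncogenes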
[13] = general cell-killing toxicity readout – plate reader, dry powder samples, cytotoxicity control for PAX8 inhibitor project, dose response (AID 743021); format: functional, cell-based
BJ [14] = assay: BJ-TERT fibroblast viability loss – cell-based, RAS-independent, luminescence, dose response (AID 1933); format: functional; conditions: Homo sapiens
[15] = DRD fibroblast viability loss – cell-based, non-viral oncogenic, luminescence, dose response (AID 1934); format: functional; conditions: Homo sapiens
Paired box protein Pax-8 = Paired box protein Pax-8 (Homo sapiens, UniProt Q06710); assay: PAX8 transcriptional activity inhibition in RMG-I – RMG-I cells, luciferase, cherry-pick, dose response (AID 687027); format: functional, cell-based;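 note: luciferase reporter driven by Pax8 target thyroperoxidase promoter measured by SteadyGlo luminescence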
BJ [16] = assay: cells; format: functional, cell-based; conditions: Homo sapiens
[17] = target: Disintegrin and metalloproteinase domain-containing protein 17 (Homo sapiens, UniProt P78536); assay: exosite inhibitors of ADAM17, dose response, biochemical (AID 743260)
[18] = general mammalian cell viability loss – activator set, cherry-pick, cytotoxicity control for miR-122 modulator project, dose response (AID 720690); format: functional, cell-based;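 note: HEK293T human cells scored for general mammalian cytotoxicity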
[19] = target: T4, Oxysterols receptor LXR-beta (Homo sapiens, UniProt P55055); assay: LXR agonists, Gal4 luciferase reporter, dose response, counter-screen for ssDAF-12 agonist project, cell-based, luminescence, HEK293, S. stercoralis campaign (AID 720737); format: functional; conditions: read-out: IC50 (the source's name)
T4 sequence (P55055 whole entry): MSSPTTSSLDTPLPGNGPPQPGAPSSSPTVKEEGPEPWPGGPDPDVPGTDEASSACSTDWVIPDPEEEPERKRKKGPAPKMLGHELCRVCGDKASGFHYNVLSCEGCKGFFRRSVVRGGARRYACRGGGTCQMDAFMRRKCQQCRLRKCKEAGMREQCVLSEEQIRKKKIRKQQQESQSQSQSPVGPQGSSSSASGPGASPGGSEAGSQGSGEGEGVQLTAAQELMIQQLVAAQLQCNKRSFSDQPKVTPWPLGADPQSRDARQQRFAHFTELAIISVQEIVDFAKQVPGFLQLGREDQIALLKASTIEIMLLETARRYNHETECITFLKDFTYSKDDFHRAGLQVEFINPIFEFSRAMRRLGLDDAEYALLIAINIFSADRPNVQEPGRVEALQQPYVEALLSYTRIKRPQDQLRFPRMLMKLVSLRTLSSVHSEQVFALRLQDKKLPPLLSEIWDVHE

[20] = Luminescence-based cell-based high throughput dose response assay to identify activators of the DAF-12 from the parasite S. stercoralis (ssDAF-12).; format: functional
[21] = OVCAR-3 cell viability loss – plate reader, dry powder samples, PAX8 inhibitor project, dose response (AID 743044); format: functional, cell-based
[22] = target: FAD-linked sulfhydryl oxidase ALR (Homo sapiens, UniProt P55789); assay: ALR-catalysed DTT oxidation blockers – biochemical, H2O2 detection, luminescence, cherry-pick, dose response (AID 493248)
[23] = P. falciparum Dd2 growth inhibitors, dose response, SYBR Green, cherry-picked samples (AID 1159567); format: functional, cell-based
[24] = toxicity to human hepatoma HepG2 cells – cell-based, cherry-picked samples, cytotoxicity control, dose response (AID 1159577); format: functional

Paired box protein Pax-8, sequence (Q06710 whole entry): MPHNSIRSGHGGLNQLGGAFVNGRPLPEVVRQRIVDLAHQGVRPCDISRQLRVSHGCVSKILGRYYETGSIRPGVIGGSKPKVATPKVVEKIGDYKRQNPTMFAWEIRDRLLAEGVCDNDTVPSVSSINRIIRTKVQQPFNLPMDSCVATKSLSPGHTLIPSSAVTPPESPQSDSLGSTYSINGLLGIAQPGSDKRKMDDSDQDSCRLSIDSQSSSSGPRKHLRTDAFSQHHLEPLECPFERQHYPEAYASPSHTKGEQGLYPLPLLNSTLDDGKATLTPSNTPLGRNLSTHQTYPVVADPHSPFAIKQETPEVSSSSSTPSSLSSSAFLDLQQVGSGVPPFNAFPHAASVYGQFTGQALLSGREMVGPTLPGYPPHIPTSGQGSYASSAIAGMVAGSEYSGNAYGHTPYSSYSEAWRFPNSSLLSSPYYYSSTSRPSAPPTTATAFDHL
T2 sequence (P11940 whole entry, the tested form may be a part): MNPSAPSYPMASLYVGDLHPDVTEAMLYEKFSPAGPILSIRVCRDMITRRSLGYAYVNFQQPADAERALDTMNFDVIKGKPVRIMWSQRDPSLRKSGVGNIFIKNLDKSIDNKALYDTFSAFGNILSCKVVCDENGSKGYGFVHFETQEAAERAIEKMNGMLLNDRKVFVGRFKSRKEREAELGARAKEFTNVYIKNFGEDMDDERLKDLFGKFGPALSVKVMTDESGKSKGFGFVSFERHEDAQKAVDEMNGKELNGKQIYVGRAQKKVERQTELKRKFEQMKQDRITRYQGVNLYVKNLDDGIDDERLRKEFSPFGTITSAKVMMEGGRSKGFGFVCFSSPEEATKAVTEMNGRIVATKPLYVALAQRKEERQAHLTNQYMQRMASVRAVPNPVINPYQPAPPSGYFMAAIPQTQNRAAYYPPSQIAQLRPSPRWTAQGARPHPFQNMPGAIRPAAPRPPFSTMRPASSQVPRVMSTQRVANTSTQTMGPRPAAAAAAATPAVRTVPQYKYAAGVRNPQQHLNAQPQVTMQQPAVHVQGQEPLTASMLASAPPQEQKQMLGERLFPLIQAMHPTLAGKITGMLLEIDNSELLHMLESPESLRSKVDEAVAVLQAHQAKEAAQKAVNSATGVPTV
Genome polyprotein, sequence (P29990 2492-3391 limits assumed): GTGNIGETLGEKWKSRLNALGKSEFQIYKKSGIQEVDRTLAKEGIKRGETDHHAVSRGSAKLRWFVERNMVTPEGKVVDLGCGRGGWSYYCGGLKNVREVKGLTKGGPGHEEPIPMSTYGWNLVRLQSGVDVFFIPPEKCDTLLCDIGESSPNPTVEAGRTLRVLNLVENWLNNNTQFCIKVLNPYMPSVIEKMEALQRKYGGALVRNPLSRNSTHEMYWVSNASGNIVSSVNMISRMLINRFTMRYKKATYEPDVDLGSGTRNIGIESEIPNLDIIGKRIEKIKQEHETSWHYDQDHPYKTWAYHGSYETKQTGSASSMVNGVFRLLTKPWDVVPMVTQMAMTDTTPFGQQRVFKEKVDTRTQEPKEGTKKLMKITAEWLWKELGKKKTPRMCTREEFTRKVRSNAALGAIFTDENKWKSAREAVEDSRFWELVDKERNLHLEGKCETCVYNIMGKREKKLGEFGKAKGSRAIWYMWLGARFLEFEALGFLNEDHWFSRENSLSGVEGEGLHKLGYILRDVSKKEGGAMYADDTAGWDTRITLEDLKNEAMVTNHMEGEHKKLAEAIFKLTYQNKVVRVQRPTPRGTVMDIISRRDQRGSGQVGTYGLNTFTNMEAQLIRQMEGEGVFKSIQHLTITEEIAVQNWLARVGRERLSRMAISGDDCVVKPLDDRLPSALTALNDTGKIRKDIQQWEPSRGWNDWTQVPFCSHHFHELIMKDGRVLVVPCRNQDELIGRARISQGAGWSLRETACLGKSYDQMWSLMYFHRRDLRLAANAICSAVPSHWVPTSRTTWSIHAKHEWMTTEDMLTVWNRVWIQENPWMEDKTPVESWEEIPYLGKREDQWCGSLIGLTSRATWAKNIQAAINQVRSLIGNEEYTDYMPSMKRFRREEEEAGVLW
Disintegrin and metalloproteinase domain-containing protein 17, sequence (P78536 whole entry, the tested form may be a part): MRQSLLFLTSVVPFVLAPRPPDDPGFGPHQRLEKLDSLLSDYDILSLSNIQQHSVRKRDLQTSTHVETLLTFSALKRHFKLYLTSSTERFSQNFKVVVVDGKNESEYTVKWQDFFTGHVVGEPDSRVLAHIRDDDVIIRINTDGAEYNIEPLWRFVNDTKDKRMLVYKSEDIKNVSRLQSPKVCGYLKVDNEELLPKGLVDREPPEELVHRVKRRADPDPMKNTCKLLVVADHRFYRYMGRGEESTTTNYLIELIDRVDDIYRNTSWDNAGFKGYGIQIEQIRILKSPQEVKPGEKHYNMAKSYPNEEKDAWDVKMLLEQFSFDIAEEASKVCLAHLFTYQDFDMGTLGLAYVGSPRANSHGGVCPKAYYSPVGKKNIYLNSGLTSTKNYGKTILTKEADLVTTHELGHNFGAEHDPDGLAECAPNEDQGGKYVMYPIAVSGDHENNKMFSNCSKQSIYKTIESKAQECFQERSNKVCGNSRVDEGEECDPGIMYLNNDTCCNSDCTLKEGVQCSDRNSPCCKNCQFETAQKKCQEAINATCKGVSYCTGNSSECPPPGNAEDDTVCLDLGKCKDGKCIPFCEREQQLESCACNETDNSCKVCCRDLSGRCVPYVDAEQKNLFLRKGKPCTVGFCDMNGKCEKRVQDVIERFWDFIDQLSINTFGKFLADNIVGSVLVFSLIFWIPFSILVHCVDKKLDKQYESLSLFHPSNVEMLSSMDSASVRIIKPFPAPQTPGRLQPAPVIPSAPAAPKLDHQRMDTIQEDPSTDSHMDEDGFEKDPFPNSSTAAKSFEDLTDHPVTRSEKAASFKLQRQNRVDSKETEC
FAD-linked sulfhydryl oxidase ALR, sequence (P55789 whole entry): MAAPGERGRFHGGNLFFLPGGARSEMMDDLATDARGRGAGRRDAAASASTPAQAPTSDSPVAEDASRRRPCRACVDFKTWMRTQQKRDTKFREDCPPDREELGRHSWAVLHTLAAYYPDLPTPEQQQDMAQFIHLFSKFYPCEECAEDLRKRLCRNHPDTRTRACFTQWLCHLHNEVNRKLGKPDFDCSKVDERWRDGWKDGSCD
Large T antigen, sequence (P03070 whole entry): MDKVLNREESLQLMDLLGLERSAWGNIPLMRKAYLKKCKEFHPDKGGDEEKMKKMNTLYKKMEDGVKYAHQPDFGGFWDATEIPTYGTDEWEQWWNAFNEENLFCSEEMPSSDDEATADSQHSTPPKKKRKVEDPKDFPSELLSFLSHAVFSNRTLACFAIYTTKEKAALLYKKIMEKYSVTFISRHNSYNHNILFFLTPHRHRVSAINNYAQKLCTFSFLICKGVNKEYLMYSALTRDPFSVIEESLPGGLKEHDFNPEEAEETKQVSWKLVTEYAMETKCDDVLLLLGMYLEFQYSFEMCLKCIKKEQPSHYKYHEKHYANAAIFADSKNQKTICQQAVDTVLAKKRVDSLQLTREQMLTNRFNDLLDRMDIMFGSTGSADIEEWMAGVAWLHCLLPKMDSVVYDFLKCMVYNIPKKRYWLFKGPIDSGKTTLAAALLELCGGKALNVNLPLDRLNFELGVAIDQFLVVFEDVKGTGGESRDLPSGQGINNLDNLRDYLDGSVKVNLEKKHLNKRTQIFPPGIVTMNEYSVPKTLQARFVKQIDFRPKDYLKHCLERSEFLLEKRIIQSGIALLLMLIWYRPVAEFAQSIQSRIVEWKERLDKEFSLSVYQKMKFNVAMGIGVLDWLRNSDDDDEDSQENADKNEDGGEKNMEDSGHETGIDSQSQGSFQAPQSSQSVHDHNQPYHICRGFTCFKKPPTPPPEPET

For `O=C(O)c1cccc(-c2nc3ccccc3[nH]2)c1`, the AC50 [1] was > 52 µM (inactive), the AC50 [2] was > 52 µM (inactive) and the AC50 [3] was 1.54 µM (active). The AC50 [4] was 1.5 µM (active).

With `O=C(Nc1ccc(C(=O)N2CCCCC2)cc1)C1=CSCCO1` the IC50 (cells) was > 67.6 µM (inactive) and the IC50 [5] was > 67.6 µM (inactive).

For `CN(Cc1ccccc1)C(=O)COC(=O)c1ccccc1Nc1ccccc1`, the AC50 [6] was 8.73 µM (active).

For `O=C(O)c1ccc(Nc2cc(Cl)c3nonc3c2[N+](=O)[O-])cc1`, the IC50 [7] was > 66 µM (inactive), the IC50 (Large T antigen) was 76.6 µM (active) and the IC50 [8] was > 66 µM (inactive). For the same compound, the IC50 (Genome polyprotein) was 12 µM (active) and the IC50 [9] was 92 µM (active).

In the case of `CCN(C(=O)c1cc2c(=O)n3ccccc3nc2n1C)C1CCCCC1`, the IC50 (cells) is reported as > 67.5 µM (inactive) and the IC50 [5] is reported as > 67.5 µM (inactive).

In the case of `O=S(=O)(Nc1nccs1)c1ccc(NS(=O)(=O)c2cccs2)cc1`, the AC50 [10] is reported as 20.1 µM (active) and the AC50 [6] is reported as 5.42 µM (active).

For `Sc1n[nH]c(-c2sccc2OCc2ccc(Cl)cc2Cl)n1`, the IC50 [11] was > 69.5 µM (inactive).

With `O=C(NC1CCCCC1)C(c1cccnc1)N(C(=O)CCl)c1ccccc1Cl` (stereo not given) the EC50 (BJ [12]) was > 150 µM (not active), the AC50 [13] was 11.2 µM (active) and the EC50 (BJ [14]) was 3.94 µM (inconclusive). For the same compound, the EC50 [15] was 37.3 µM (active), the AC50 (Paired box protein Pax-8) was 6.05 µM (active) and the EC50 (BJ [16]) was > 150 µM (not active).

In the case of `CCCn1c(CCNc2nc(-c3cccc(Br)c3)cs2)nc2ccccc21`, the IC50 [17] is reported as > 69.6 µM (inactive) and the IC50 [11] is reported as > 69.6 µM (inactive).

For `COc1ccc(/C(C)=N/Nc2nccnc2Cl)cc1`, the IC50 (cells) was > 67.6 µM (inactive) and the IC50 [5] was > 67.6 µM (inactive).

For `O=C(Nc1ccccc1)N1CCCCN2[C@@H](CO)[C@H](c3ccc(C4=CCCCC4)cc3)[C@@H]2C1`, the AC50 [10] was 10 µM (active) and the AC50 [18] was 10 µM (active).

In the case of `C[C@@H]1CN([C@H](C)CO)C(=O)c2cc(NC(=O)Nc3ccc(C(F)(F)F)cc3)ccc2O[C@@H]1CN(C)CC1CCCCC1`, the AC50 [10] is reported as 32.8 µM (active) and the AC50 [6] is reported as 10.2 µM (active).

With `COc1ccc(S(=O)(=O)Nc2ccc3c(c2)CC(=O)N([C@@H](C)CO)C[C@@H](C)[C@H](CN(C)Cc2ccc(-c4ccccc4)cc2)O3)cc1` the AC50 [18] was 17.5 µM (active) and the AC50 (Paired box protein Pax-8) was 6.29 µM (active).

In the case of `Cc1onc(-c2ccccc2)c1C(=O)OCC(=O)c1ccc(F)cc1`, the EC50 [19] is reported as > 67.5 µM (inactive) and the IC50 [20] is reported as > 67.5 µM (inactive).

For `COCC(=O)N1CCCCN2[C@H](C1)[C@@H](c1ccc(-c3ccc(C)cc3)cc1)[C@@H]2CO`, the AC50 [21] was 56.3 µM (active) and the AC50 (Paired box protein Pax-8) was 58.9 µM (active).

With `C/C=C/c1ccc([C@@H]2[C@H](CO)N[C@H]2CN(CC(C)C)C(=O)c2ccccn2)cc1` the AC50 [18] was 23.5 µM (active).

In the case of `Cc1ccc(/C=N/Nc2ccc3ccccc3n2)o1`, the IC50 (cells) is reported as > 67.5 µM (inactive), the IC50 [5] is reported as > 67.5 µM (inactive) and the AC50 [22] is reported as 5.31 µM (active).

In the case of `CN(/N=C/c1cccnc1)c1cnc2ccccc2n1`, the EC50 [19] is reported as > 67.5 µM (inactive) and the IC50 [20] is reported as > 67.5 µM (inactive).

With `OC[C@@H]1[C@H](c2ccc(-c3ccc(F)cc3)cc2)[C@H](CNC2CCCC2)N1CCC(F)(F)F` the AC50 [23] was 2.51 µM (active) and the AC50 [24] was 16.5 µM (active).
